The values that follow come from patent US8846684B2 (priority 2011, dated 2014).

Where two headings read alike, the source gives them in different places.

One data set concerns NSV. Type of data set: cell-based, neuroadapted Sindbis virus.
The next data set concerns WEEV. Type of data set: cell-based, Western equine encephalitis virus.
A further data set concerns WEEV replicon. The data set is described as follows: microbe, parasite or virus in culture. It is filed as cell-based, Western equine encephalitis virus.
Data set [1] concerns vaccine strain of Venezuelan equine encephalitis virus (VEEV). The note with it: mouse, in vivo; cited from earlier work.
A further data set concerns wild-type VEEV. The note with it: in vivo; cited from earlier work.
Setting [2] is: Western equine encephalitis virus, read-out: Activity IC50 (μM).

The IC50 is the concentration that inhibits the measured activity by half. Regarding `C[C@@H](NC(=O)C1CCN(C(=O)c2cc3ccccc3n2Cc2ccc(Cl)cc2)CC1)c1ccccc1` [CCG 203926, (R)-1-(1-(4-chlorobenzyl)-1H-indole-2-carbonyl)-N-(1-phenylethyl)piperidine-4-carboxamide], the “NSV titers (virion production, plaque assay)” value with NSV is given as “significantly reduced”. In addition, in the data set on WEEV, the “WEEV titers (virion production, plaque assay)” value was “significantly reduced”. In addition, in the data set with BSR-T7/C3 clone, the cytotoxicity result is “relatively low cytotoxicity”. In addition, in the data set on WEEV replicon, the “activity in the replicon inhibition assay (in words)” value is reported as “active”. In addition, in the data set on WEEV replicon (Western equine encephalitis virus, read-out: Activity (% control LUC) 2 μM), the activity at 2 µM amounted to 100%. For the same compound, in the data set on WEEV replicon (Western equine encephalitis virus, read-out: Activity (% control LUC) 10 μM), the activity at 10 µM was 55%. For the same compound, the activity at 50 µM in the data set on WEEV replicon (Western equine encephalitis virus, read-out: Activity (% control LUC) 50 μM) was 17%. Also, the IC50 in the data set on WEEV replicon (setting [2]) turned out to be 8.7 µM.

For (−)-carbodine, in data set [1], the disease outcome was “improved outcome” and the “lowering of peak CNS viral titers” value is listed as “half-log”. Also, in the data set on wild-type VEEV, the “benefit following wild-type VEEV challenge” value is “no benefit”.

As for `O=C(NCc1ccccc1)C1CCN(C(=O)c2cc3ccccc3n2Cc2ccc(Cl)cc2)CC1` [CCG 102516, N-benzyl-1-(1-(4-chlorobenzyl)-1H-indole-2-carbonyl)piperidine-4-carboxamide], the “NSV titers (virion production, plaque assay)” value in the data set with NSV is on record as “significantly reduced”. Moreover, the “WEEV titers (virion production, plaque assay)” value with WEEV is “significantly reduced”. For the same compound, the IC50 in the data set on WEEV replicon (setting [2]) came out at 18.6 µM. Also, in the data set on WEEV replicon (Western equine encephalitis virus; read-out: Activity (% control LUC) 2 μM), the activity at 2 µM is 88%. Also, the activity at 10 µM with WEEV replicon (Western equine encephalitis virus; read-out: Activity (% control LUC) 10 μM) worked out at 76.9%. The activity at 50 µM in the data set with WEEV replicon (Western equine encephalitis virus; read-out: Activity (% control LUC) 50 μM) turned out to be 59.7%.
